The source made the active and inactive calls. No cut-off for these calls is given here.
Experiments:
K562-Lucena 1 [1] = assay: Induction of cell cycle arrest in human K562-Lucena 1 cells assessed as necrotic cells at 2 mM after 24 hrs by propidium iodide staining based flow cytometric analysis (reference value: 1.03%); format: functional
K562-Lucena 1 [2] = assay: Induction of DNA fragmentation in human K562-Lucena 1 cells at 2 mM incubated for 48 hrs by DAPI staining based fluorescence microscopy; format: functional, cell-based
K562-Lucena 1 [3] = assay: Induction of morphological changes in human K562-Lucena 1 cells assessed as appearance of apoptotic bodies at 2 mM incubated for 48 hrs by DAPI staining based fluorescence microscopy; format: functional, cell-based
K562-Lucena 1 [4] = assay: Induction of cell cycle arrest in human K562-Lucena 1 cells assessed as early apoptotic cells at 2 mM after 24 hrs by propidium iodide staining based flow cytometric analysis (reference value: 7.79%); format: functional
K562 [5] = assay: Induction of morphological changes in human K562 cells assessed as appearance of condensed chromatin at 2 mM incubated for 48 hrs by DAPI staining based fluorescence microscopy; format: functional, cell-based
K562 [6] = assay: Induction of DNA fragmentation in human K562 cells at 2 mM incubated for 48 hrs by DAPI staining based fluorescence microscopy; format: functional, cell-based
K562 [7] = assay: Induction of apoptosis in human K562 cells assessed as necrotic cells at 2 mM after 48 hrs by Annexin V-FITC/PI double staining based flow cytometry analysis (reference value: 0.13%); format: functional
K562-Lucena 1 [8] = assay: Induction of cell cycle arrest in human K562-Lucena 1 cells assessed as viable cells at 2 mM after 48 hrs by propidium iodide staining based flow cytometric analysis (reference value: 87.1%); format: functional; details: K562-Lucena 1, 48 h, read-out: Activity
K562-Lucena 1 [9] = assay: Induction of morphological changes in human K562-Lucena 1 cells assessed as appearance of condensed chromatin at 2 mM incubated for 48 hrs by DAPI staining based fluorescence microscopy; format: functional, cell-based
K562 [10] = assay: Induction of apoptosis in human K562 cells assessed as early apoptotic cells at 2 mM after 48 hrs by Annexin V-FITC/PI double staining based flow cytometry analysis (reference value: 1.67%); format: functional
K562 [11] = assay: Induction of apoptosis in human K562 cells assessed as necrotic cells at 2 mM after 24 hrs by Annexin V-FITC/PI double staining based flow cytometry analysis (reference value: 0.085%); format: functional
K562 [12] = assay: Induction of apoptosis in human K562 cells assessed as viable cells at 2 mM after 24 hrs by Annexin V-FITC/PI double staining based flow cytometry analysis (Rvb =96.4%); format: functional; details: K562, 24 h, read-out: Activity
K562-Lucena 1 [13] = assay: Induction of cell cycle arrest in human K562-Lucena 1 cells assessed as viable cells at 2 mM after 24 hrs by propidium iodide staining based flow cytometric analysis (reference value: 88%); format: functional; details: K562-Lucena 1, 24 h, read-out: Activity
K562-Lucena 1 [14] = assay: Induction of cell cycle arrest in human K562-Lucena 1 cells assessed as necrotic cells at 2 mM after 48 hrs by propidium iodide staining based flow cytometric analysis (reference value: 2.15%); format: functional
K562-Lucena 1 [15] = assay: Induction of cell cycle arrest in human K562-Lucena 1 cells assessed as late apoptotic cells at 2 mM after 48 hrs by propidium iodide staining based flow cytometric analysis (reference value: 3.23%); format: functional
K562 [16] = assay: Induction of apoptosis in human K562 cells assessed as early apoptotic cells at 2 mM after 24 hrs by Annexin V-FITC/PI double staining based flow cytometry analysis (reference value: 2.76%); format: functional
K562 [17] = assay: Induction of morphological changes in human K562 cells assessed as appearance of apoptotic bodies at 2 mM incubated for 48 hrs by DAPI staining based fluorescence microscopy; format: functional, cell-based
K562 [18] = assay: Induction of apoptosis in human K562 cells assessed as late apoptotic cells at 2 mM after 24 hrs by Annexin V-FITC/PI double staining based flow cytometry analysis (reference value: 0.79%); format: functional
K562 [19] = assay: Induction of apoptosis in human K562 cells assessed as late apoptotic cells at 2 mM after 48 hrs by Annexin V-FITC/PI double staining based flow cytometry analysis (reference value: 0.41%); format: functional
K562-Lucena 1 [20] = assay: Induction of cell cycle arrest in human K562-Lucena 1 cells assessed as late apoptotic cells at 2 mM after 24 hrs by propidium iodide staining based flow cytometric analysis (reference value: 3.15%); format: functional
K562 [21] = assay: Induction of apoptosis in human K562 cells assessed as viable cells at 2 mM after 48 hrs by Annexin V-FITC/PI double staining based flow cytometry analysis (Rvb =97.8%); format: functional; details: K562, 48 h, read-out: Activity
K562-Lucena 1 [22] = assay: Induction of cell cycle arrest in human K562-Lucena 1 cells assessed as early apoptotic cells at 2 mM after 48 hrs by propidium iodide staining based flow cytometric analysis (reference value: 7.57%); format: functional

For NC(=O)NO [HYDROXYUREA], the Activity (K562-Lucena 1 [1]) was 1.99%, the Activity (K562-Lucena 1 [2]) was “Active” and the Activity (K562-Lucena 1 [3]) was “Active”. The Activity (K562-Lucena 1 [4]) was 15.3%, the Activity (K562 [5]) was “Active” and the Activity (K562 [6]) was “Active”. The Activity (K562 [7]) was 1.5%, the viability at 2000 µM (K562-Lucena 1 [8]) was 60.1% and the Activity (K562-Lucena 1 [9]) was “Active”. The Activity (K562 [10]) was 21.9%, the Activity (K562 [11]) was 0.75% and the viability at 2000 µM (K562 [12]) was 96%. For the same molecule, the viability at 2000 µM (K562-Lucena 1 [13]) was 77.7%, the Activity (K562-Lucena 1 [14]) was 5.57% and the Activity (K562-Lucena 1 [15]) was 12.2%. The Activity (K562 [16]) was 2.82%, the Activity (K562 [17]) was “Active” and the Activity (K562 [18]) was 0.45%. It also gave an Activity (K562 [19]) of 6.06%, an Activity (K562-Lucena 1 [20]) of 5.06% and a viability at 2000 µM (K562 [21]) of 70.5%. It also gave an Activity (K562-Lucena 1 [22]) of 22.1%.

Reference: ChEMBL document CHEMBL4622878, “Cytotoxic Activity of Germacrane-Type Sesquiterpene Lactones from Dimerostemma aspilioides” (J Nat Prod, 2020)
